Assay results: patent US20040019060A1, “Sigma receptor ligands and their medical uses” (priority 2000, published 2004)
Counter-ions that a name gives are not always drawn. Like-named read-outs stand apart in the source and are kept apart here.

What was measured:
endothelial cells = test: Endothelial cell proliferation assay (cell phosphatase activity); type: cell-based, human; conditions: Homo sapiens, Endothelial cell
Experimental: HUVECS (human umbilical vein endothelial cells) obtained from TCS Biologicals were grown in TCS Biologicals Large Vessel Endothelial Cell Basal Medium (ZHM-2951) with supplement (ZHS-8945). This contains heparin, hydrocortisone, human EGF, human bFGF (concentrations not disclosed by the Company) with added 2% FCS, pH 7.4.
HMEC-1 (immortalised human microvascular endothelial cells) obtained from Dr Colin Porter, Chester Beatty Laboratories were grown in TCS Biologicals Microvascular Endothelial Cell Basal Medium (ZHM-2946) with supplement (ZHS-8947). This contains heparin, hydrocortisone, human EGF, human bFGF, dibutyryl cyclic AMP (concentrations not disclosed by the Company) with added 5% FCS, pH 7.4.
HDMECS (human dermal microvascular endothelial cells) obtained from TCS Biologicals were grown in TCS Biologicals Microvascular Endothelial Cell Basal Medium (ZHM-2946) with supplement (ZHS-8947). This contains heparin, hydrocortisone, human EGF, human bFGF, dibutyryl cyclic AMP (concentrations not disclosed by the Company) with added 5% FCS, pH 7.4.
The cells were seeded at 2×10^4 ml in 96 well microtitre plates on day 0, and sigma ligands were added in fresh medium on day 1. […] PCS at the concentrations indicated was present throughout the assay. Each concentration of drug was assayed in triplicate, and the vehicle concentration was kept constant.
Viable cells present at the end of the assay were estimated by determining phosphatase activity as follows: 100Xl of paranitrophenylphosphate (Sigma) at 3 mg/ml in phosphate buffer pH 5.5 containing 0.1% Triton X100 was added to wells and incubated for 2hr at 37° C. The reaction was stopped with 1N NaOH. Released paranitrophenol, indicative of attached cell number, was measured by reading the absorbance at 405 nm in a Titertek multiscan. […] The 100% value is the mean absorbance of control wells treated with vehicle alone; the 0% value is that of wells containing medium only.

sponge angiogenesis = test: Mouse sponge angiogenesis model (triple radiotracer); type: in vivo, Balb/C mice; conditions: 30 mg/kg i.p. daily, all time points, FIG. 7a
Source text: In order to study neoangiogenesis in the absence of tumours, sterile polyether sponges were implanted into animals. This technique, developed in Cambridge, has been widely used to study angiogenesis. We have employed a triple radiotracer technique to study different aspects of the angiogenic process.
Balb/C mice were implanted bilaterally s.c. with sterile 7 mm diameter polyether sponges on days -5, -12 and -16 days prior to termination (5-6 mice per group). The mice were given Lugol's solution (KI) for 3 days prior to injection of radionuclides to prevent uptake of iodine in the thyroid. 24 hours before termination, the mice were injected i.v with […] [131-I] 5′-iodo-2′-deoxyuridine (IudR). One hour prior to termination the mice were injected with 2 XCi 2-deoxy-D-(1-[H3]glucose (DG) and 2 minutes prior to termination 2XCi [Tc-99m]-exametazine (HMPAO).
The IudR uptake reflects cell proliferation (primarily endothelial cells and also a small proportion of the inflammatory cells which provide the angiogenic growth factors); the DG measures cellular glucose metabolism, and the HMPAO gives a measure of blood flow. All can be taken as separate indices of the degree of vascularisation of the sponge implants. Mice were treated i.p. daily with Rimcazole (30 mg/kg) from the day of sponge implantation, or vehicle alone.

[1] = tested on: MDA MB 435 human breast carcinoma xenografts; test: MDA MB 435 breast carcinoma xenograft growth and angiogenesis; type: in vivo, NCr athymic mice; conditions: for Tumour growth (increase in volume relative to start of treatment): FIG. 8a
Experimental: MDA MB 435 human breast carcinoma cells (as a model of hormone-insensitive disease) were grown in tissue culture to 70% confluence, harvested with trypsin:EDTA, washed, resuspended in DMEM and injected bilaterally into the inguinal fat pads of 6 week old female NCr athymic mice (orthotopic site) at 1.5×10^6 cells in 50 μl. The mice were housed in filter boxes in […] laminar flow cabinets and fed sterilized food and water. All procedures were carried out in class 1 laminar flow hoods using sterile equipment and reagents. On day 7, the tumours were measured with vernier calipers across two perpendicular diameters, and the mice were randomised into experimental groups and treated as follows: 1. […] 2. […] 3. Rimcazole 15 mg/kg/day (as above). […] The preparations were made up freshly each day, and the animals dosed intraperitoneally for 24 days. Animals were observed daily and weighed regularly to check that there were no adverse effects of treatment. […] Differences in growth were compared using the Mann-Whitney U test. At termination of the experiment the mice were killed and tumours excised and weighed. Blood, liver and tumour samples were snap frozen for analysis of drug levels by LCMS/MS. Tumour samples were also cryopreserved, and sections cut and stained with MECA-32 (Developmental Studies Hybridoma Unit; rat anti mouse endothelium) visualised with HRP conjugated goat-anti rat (Star 72, Serotec) to estimate blood vessel density.

[2] = tested on: Human adult dermal microvascular endothelial cells; test: MTS cell viability/proliferation assay, microvascular endothelial cells; conditions: Homo sapiens, Endothelial cell

## C[C@@H]1CN(CCCn2c3ccccc3c3ccccc32)C[C@H](C)N1 [Rimcazole, cis-9-[3,5-dimethyl-1-piperazinyl) propyl]carbazole dihydrochloride]
Endothelial cells; 4 μM Rimcazole, read-out: Endothelial cell proliferation, % of control cells
  activity at 4 µM: < 50%
Endothelial cells; concentration of drug required to inhibit survival and/or proliferation by 50%, read-out: Antagonists: IC50
  IC50: 5 µM
Sponge angiogenesis
  Cell proliferation (IUdR), cellular metabolism (DG) and blood flow (HMPAO) in sponge implants: reduction
[1]; 15 mg/kg dose, FIG. 8b
  Weights of excised tumours: did not achieve statistical significance
[1]; 15 mg/kg/day i.p. for 24 days, p=0.0228 Mann-Whitney U test
  Tumour growth (increase in volume relative to start of treatment): significant tumour growth retardation
[1]; 30 mg/kg/day i.p. for 24 days, p=0.0436 Mann-Whitney U test
  Tumour growth (increase in volume relative to start of treatment): significant tumour growth retardation
[1]; 30 mg/kg/day, p=0.0239, FIG. 8b
  Weights of excised tumours: significantly less
[1]; 15 and 30 mg/kg/day for 24 days, data not shown
  Health and body weight gain of mice during therapy: remained healthy throughout therapy and gained weight at the same rate as controls
[1]; both doses (15 and 30 mg/kg/day), FIG. 8c
  Vascular density in excised tumours: significantly inhibited
[2]; read-out: Reduction in viability
  cytotoxicity at 10 µM: ~80%
[2]; read-out: Reduction in viable cell numbers compared to baseline values
  cytotoxicity at 10 µM: 60 to 80%
